In publication PMC4639751, “Development of 1-N-^11C-Methyl-L- and -D-Tryptophan for pharmacokinetic imaging of the immune checkpoint inhibitor 1-Methyl-Tryptophan” (Scientific Reports, 2015):

How the values were obtained:
[1] = Ex vivo biodistribution studies; conditions: SD rats; for Biodistribution, radioactivity in Pancreas / Biodistribution, radioactivity in Blood / Biodistribution, radioactivity in Brain / Biodistribution, radioactivity in Heart / Biodistribution, radioactivity in Intestine / Biodistribution, radioactivity in Liver / Biodistribution, radioactivity in Lung / Biodistribution, radioactivity in Muscle / Biodistribution, radioactivity in Spleen / Biodistribution, radioactivity in Kidney: mean ± SEM, n = 4
From the text: Major organs and tissues (blood, heart, lung, liver, pancreas, spleen, kidney, intestine, muscle, and brain), were promptly excised, harvested, and weighed. Radioactivity was counted using a γ-counter and expressed as a percentage of the injected dose per gram of wet tissue (%ID/g). All radioactivity measurements were corrected for decay.

[2] = PET, rats
Experimental: Emission scans were acquired in three-dimensional list mode with an energy window of 350–650 keV under isoflurane anesthesia, from 0 to 60 min after radioprobe administration. All list-mode acquisition data were sorted into three-dimensional sinograms, which were then Fourier-rebinned into two-dimensional sonograms (frames × min: 4 × 1, 8 × 2, 8 × 5), and corrections for scanner dead time, randoms, and decay of the injected radioprobe. Dynamic images were reconstructed with filtered back-projection using a Hanning filter and a Nyquist cut-off of 0.5 cycles/pixel. Immediately after completion of PET scans, contrast-enhanced CT scans were performed in the rats by using the small-animal CT system (R_mCT2; Rigaku, Tokyo) after injection of 1 mL of non-ionic contrast medium (Iopamiron 370, Bayer, Osaka). The scan conditions included radiation parameters of 200 μA and 90 kV, FOV of 60 mm, and acquisition time of 34 s. CT images were collected, reconstructed, and observed using I-View-R software (Rigaku, The Woodlands, TX). Averaged CT attenuation images and dynamic PET images were reconstructed and fused using the Siemens Inveon Research Workplace (IRW) 4.0 software.
Regions of interest (ROI) in major organs and tissues were drawn in the PET/CT fusion images by manual outlining the organs and tissues in the CT images throughout the image slices by using IRW 4.0 software. The average radioactivity concentration was obtained from mean pixel values in the ROI volume. Regional uptake of radioactivity was decay-corrected to the injection time and expressed as the standardized uptake value (SUV), normalized for injected radioactivity and body weight. SUV was calculated as SUV = (radioactivity per cubic centimeter tissue/injected radioactivity) × body weight in grams. TACs of the radioprobes in individual organ and tissue were determined. Values of area under time-activity curves (AUC2–60 min, SUV × min) were calculated from 2 to 60 min post-injection to minimize the early perfusion effects.

[3] = In vitro stability assay in rat plasma; type: in vitro ADME; conditions: 37 °C, 90 min incubation, HPLC analysis
Experimental: To determine the in vitro property of the two newly-developed radioprobes, we performed plasma stability studies by HPLC analysis at 37 °C for 90 min. […] More than 95% of ^11C-L-1Mtrp and ^11C-D-1Mtrp remained intact and no detectable metabolites were found at least 90 min after plasma incubation in vitro.
^11C-L-1MTrp and ^11C-D-1MTrp (70–74 MBq, 0.4−0.6 nmol) was dissolved in 2 mL of freshly isolated rat plasma and incubated at 37 °C for 90 min. After 0, 30, 60 and 90 min, an aliquot of 300 μL incubated mixture was taken, proteins in plasma were precipitated with equal volumes of 1 M HClO4 solution, followed by centrifugation at 15000 rpm for 2 min at 4 °C. The supernatant was collected and analyzed by HPLC (Capcell Pack UG80 column, 4.6 mm i.d. × 250 mm) with […] phosphate buffer/CH3CN (8.5/1.5, v/v) at a flow rate of 1 mL/min.

[4] = Ex vivo metabolite studies; type: in vivo; conditions: SD rats; for Ex vivo metabolite analysis, % of tailored L- and D-1MTrp entity in Brain / Ex vivo metabolite analysis, % of tailored L- and D-1MTrp entity in Pancreas / Ex vivo metabolite analysis, % of tailored L- and D-1MTrp entity in Plasma: HPLC, mean ± SEM, n = 4
Experimental: To validate the derivation of radioactivity into the relevant organs and tissues, we assessed the metabolites of both radiolabelled isomers in the blood, brain, and pancreas of rats. […] Few radioactive metabolites were detected in these three tissues at 15 and 60 min after ^11C-L-1MTrp and ^11C-D-1MTrp injection.
SD rats were injected with ^11C-L-1MTrp or ^11C-D-1MTrp (70–74 MBq, 0.4–0.6 nmol) via a lateral tail vein. The animals were sacrificed by cervical dislocation at 15 and 60 min after the injection. Blood was collected and centrifuged at 15000 rpm for 2 min at 4 °C to separate the plasma. Brain and pancreas were rapidly removed, then homogenized in equal volumes of 1 M HClO4 solution with a Silent Crusher S homogenizer (Heidolph Instruments). Plasma and homogenates of brain and pancreas from rats were deproteinized and then analyzed by HPLC as described in the stability assay in vitro.

[5] = 60 min after injection, mean ± SEM, four rats

Question: With Cn1cc(C[C@H](N)C(=O)O)c2ccccc21 [L-1MTrp, 1-Methyl-L-tryptophan, reference compound] as the molecule, how does the “Biodistribution, radioactivity in Pancreas” value (“Biodistribution … in Pancreas” below) ([1]; 60 min after injection) read?
Answer: 2.27 %ID/g tissue

Question: What about the “SUV in the pancreas” value [2, 5] of the same molecule?
Answer: 2.28

Question: With [11CH3]n1cc(C[C@@H](N)C(=O)O)c2ccccc21 [^11C-D-1MTrp, 1-N-^11C-methyl-D-tryptophan] as the molecule, how does the “Biodistribution, radioactivity in Blood” value ([1]; 1 min after injection) read?
Answer: 1.47 ± 0.02 %ID/g tissue

Question: What about the “Biodistribution, radioactivity in Brain” value ([1]; 1 min after injection) of the same molecule?
Answer: 0.04 ± 0.00 %ID/g tissue

Question: What about the “Biodistribution, radioactivity in Heart” value ([1]; 1 min after injection) of the same molecule?
Answer: 0.58 ± 0.02 %ID/g tissue

Question: And the “Biodistribution, radioactivity in Intestine” value (“Biodistribution … in Intestine” for short) ([1]; 1 min after injection)?
Answer: 0.93 ± 0.02 %ID/g tissue

Question: And the “Biodistribution, radioactivity in Liver” value ([1]; 1 min after injection)?
Answer: 1.24 ± 0.03 %ID/g tissue

Question: And the “Biodistribution, radioactivity in Lung” value ([1]; 1 min after injection)?
Answer: 0.79 ± 0.03 %ID/g tissue

Question: What about the “Biodistribution, radioactivity in Muscle” value ([1]; 1 min after injection) of the same molecule?
Answer: 0.12 ± 0.00 %ID/g tissue

Question: And the “Biodistribution … in Pancreas” value ([1]; 1 min after injection)?
Answer: 0.76 ± 0.07 %ID/g tissue

Question: And the “Biodistribution, radioactivity in Spleen” value ([1]; 1 min after injection)?
Answer: 0.62 ± 0.02 %ID/g tissue

Question: What about the “Biodistribution, radioactivity in Blood” value ([1]; 5 min after injection) of the same molecule?
Answer: 0.79 ± 0.03 %ID/g tissue

Question: What about the “Biodistribution, radioactivity in Brain” value ([1]; 5 min after injection) of the same molecule?
Answer: 0.05 ± 0.01 %ID/g tissue

Question: And the “Biodistribution, radioactivity in Heart” value ([1]; 5 min after injection)?
Answer: 0.55 ± 0.02 %ID/g tissue

Question: What about the “Biodistribution … in Intestine” value ([1]; 5 min after injection) of the same molecule?
Answer: 0.68 ± 0.02 %ID/g tissue

Question: And the “Biodistribution, radioactivity in Liver” value ([1]; 5 min after injection)?
Answer: 0.97 ± 0.02 %ID/g tissue

Question: What about the “Biodistribution, radioactivity in Lung” value ([1]; 5 min after injection) of the same molecule?
Answer: 0.60 ± 0.02 %ID/g tissue

Question: What about the “Biodistribution, radioactivity in Muscle” value ([1]; 5 min after injection) of the same molecule?
Answer: 0.26 ± 0.01 %ID/g tissue

Question: What about the “Biodistribution … in Pancreas” value ([1]; 5 min after injection) of the same molecule?
Answer: 1.03 ± 0.15 %ID/g tissue

Question: What about the “Biodistribution, radioactivity in Spleen” value ([1]; 5 min after injection) of the same molecule?
Answer: 0.51 ± 0.02 %ID/g tissue

Question: What about the “Biodistribution, radioactivity in Blood” value ([1]; 15 min after injection) of the same molecule?
Answer: 0.49 ± 0.01 %ID/g tissue

Question: And the “Biodistribution, radioactivity in Brain” value ([1]; 15 min after injection)?
Answer: 0.08 ± 0.00 %ID/g tissue

Question: What about the “Biodistribution, radioactivity in Heart” value ([1]; 15 min after injection) of the same molecule?
Answer: 0.52 ± 0.02 %ID/g tissue

Question: What about the “Biodistribution … in Intestine” value ([1]; 15 min after injection) of the same molecule?
Answer: 0.53 ± 0.00 %ID/g tissue

Question: What about the “Biodistribution, radioactivity in Kidney” value ([1]; 15 min after injection) of the same molecule?
Answer: 3.66 ± 0.15 %ID/g tissue

Question: What about the “Biodistribution, radioactivity in Liver” value ([1]; 15 min after injection) of the same molecule?
Answer: 0.64 ± 0.01 %ID/g tissue

Question: What about the “Biodistribution, radioactivity in Lung” value ([1]; 15 min after injection) of the same molecule?
Answer: 0.46 ± 0.02 %ID/g tissue

Question: And the “Biodistribution, radioactivity in Muscle” value ([1]; 15 min after injection)?
Answer: 0.35 ± 0.01 %ID/g tissue

Question: What about the “Biodistribution … in Pancreas” value ([1]; 15 min after injection) of the same molecule?
Answer: 1.01 ± 0.06 %ID/g tissue

Question: What about the “Biodistribution, radioactivity in Spleen” value ([1]; 15 min after injection) of the same molecule?
Answer: 0.48 ± 0.01 %ID/g tissue

Question: What about the “Biodistribution, radioactivity in Blood” value ([1]; 30 min after injection) of the same molecule?
Answer: 0.40 ± 0.01 %ID/g tissue

Question: What about the “Biodistribution, radioactivity in Brain” value ([1]; 30 min after injection) of the same molecule?
Answer: 0.11 ± 0.00 %ID/g tissue

Question: And the “Biodistribution, radioactivity in Heart” value ([1]; 30 min after injection)?
Answer: 0.42 ± 0.02 %ID/g tissue

Question: What about the “Biodistribution … in Intestine” value ([1]; 30 min after injection) of the same molecule?
Answer: 0.40 ± 0.01 %ID/g tissue

Question: And the “Biodistribution, radioactivity in Kidney” value ([1]; 30 min after injection)?
Answer: 2.12 ± 0.16 %ID/g tissue

Question: And the “Biodistribution, radioactivity in Liver” value ([1]; 30 min after injection)?
Answer: 0.47 ± 0.01 %ID/g tissue

Question: What about the “Biodistribution, radioactivity in Lung” value ([1]; 30 min after injection) of the same molecule?
Answer: 0.37 ± 0.01 %ID/g tissue

Question: And the “Biodistribution, radioactivity in Muscle” value ([1]; 30 min after injection)?
Answer: 0.38 ± 0.03 %ID/g tissue

Question: What about the “Biodistribution … in Pancreas” value ([1]; 30 min after injection) of the same molecule?
Answer: 1.21 ± 0.05 %ID/g tissue

Question: What about the “Biodistribution, radioactivity in Spleen” value ([1]; 30 min after injection) of the same molecule?
Answer: 0.40 ± 0.02 %ID/g tissue

Question: And the “Biodistribution, radioactivity in Blood” value ([1]; 60 min after injection)?
Answer: 0.32 ± 0.01 %ID/g tissue

Question: And the “Biodistribution, radioactivity in Brain” value ([1]; 60 min after injection)?
Answer: 0.15 ± 0.01 %ID/g tissue

Question: And the “Biodistribution, radioactivity in Heart” value ([1]; 60 min after injection)?
Answer: 0.30 ± 0.01 %ID/g tissue

Question: And the “Biodistribution … in Intestine” value ([1]; 60 min after injection)?
Answer: 0.32 ± 0.01 %ID/g tissue

Question: And the “Biodistribution, radioactivity in Kidney” value ([1]; 60 min after injection)?
Answer: 1.16 ± 0.03 %ID/g tissue

Question: And the “Biodistribution, radioactivity in Liver” value ([1]; 60 min after injection)?
Answer: 0.37 ± 0.01 %ID/g tissue

Question: What about the “Biodistribution, radioactivity in Lung” value ([1]; 60 min after injection) of the same molecule?
Answer: 0.28 ± 0.01 %ID/g tissue

Question: And the “Biodistribution, radioactivity in Muscle” value ([1]; 60 min after injection)?
Answer: 0.33 ± 0.01 %ID/g tissue

Question: And the “Biodistribution … in Pancreas” value ([1]; 60 min after injection)?
Answer: 1.03 ± 0.06 %ID/g tissue

Question: What about the “Biodistribution, radioactivity in Spleen” value ([1]; 60 min after injection) of the same molecule?
Answer: 0.32 ± 0.01 %ID/g tissue

Question: And the “Measured uptake in organs other than kidneys and pancreas” value ([1]; 60 min after radioprobe injection, span over organs)?
Answer: 0.15−0.37 % ID/g

Question: What about the “Fraction remaining intact in rat plasma” value [3] of the same molecule?
Answer: More than 95%

Question: And the “Radioactivity in the brain, pancreas, and blood associated with L- and D-1MTrp” value ([4]; 15 and 60 min after injection)?
Answer: more than 94%

Question: And the “Ex vivo metabolite analysis, % of tailored L- and D-1MTrp entity in Brain” value ([4]; 15 min after injection)?
Answer: 95.06 ± 0.38%

Question: What about the “Ex vivo metabolite analysis, % of tailored L- and D-1MTrp entity in Pancreas” value ([4]; 15 min after injection) of the same molecule?
Answer: 94.08 ± 0.51%

Question: And the “Ex vivo metabolite analysis, % of tailored L- and D-1MTrp entity in Plasma” value ([4]; 15 min after injection)?
Answer: 94.45 ± 0.03%

Question: And the “Ex vivo metabolite analysis, % of tailored L- and D-1MTrp entity in Brain” value ([4]; 60 min after injection)?
Answer: 98.16 ± 0.47%

Question: What about the “Ex vivo metabolite analysis, % of tailored L- and D-1MTrp entity in Pancreas” value ([4]; 60 min after injection) of the same molecule?
Answer: 96.31 ± 0.48%

Question: What about the “Ex vivo metabolite analysis, % of tailored L- and D-1MTrp entity in Plasma” value ([4]; 60 min after injection) of the same molecule?
Answer: 98.81 ± 0.25%

Question: What about the “SUV in the kidney” value [2, 5] of the same molecule?
Answer: 1.79 ± 0.07

Question: And the “SUV in the other organs (other than kidneys)” value ([2]; 60 min after injection, span over organs)?
Answer: 0.20−0.61

Question: What about the “Maximum accumulation (SUV) in the kidneys” value ([2]; within 5 min after administration) of the same molecule?
Answer: 6.03 ± 0.43
